According to patent US20230146795A1, “ENHANCEMENT OF ANTI-TUMOR ACTIVITY OF SHP2 INHIBITOR PYRIMIDINONE IN COMBINATION WITH NOVEL CANCER MEDICINES IN CANCERS” (TAIHO PHARMACEUTICAL CO., LTD., priority 2020, published 2023):
One block for each compound: values may come before it.

Key:
NCI-H358 = test: Anti-proliferation assay (CellTiter-Glo 2.0), combination index, NCI-H358; format: cell-based; conditions: molar ratio 1:3
Method in brief: (§1)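 Cells were seeded at 500 cells/well in medium with 10% FBS and exposed to agents at 8 concentrations including 0 nM, for 3 days at 37° C under 5% CO2. Survival was read by CellTiter-Glo 2.0 luminescence, and combination index was determined at each combined concentration.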

MKN45 = test: Anti-proliferation assay (CellTiter-Glo 2.0), combination index, MKN45; format: cell-based; conditions: molar ratio 1:27
Method in brief: as §1

MV-4-11 = test: Anti-proliferation assay (CellTiter-Glo 2.0), combination index, MV-4-11; format: cell-based; conditions: molar ratio 1:27
Procedure: (§2) Cell lines were obtained from ATCC or Health Science Research Resources Bank.
(§3) 384 well culture plate (781086, Greiner Bio-One International) was used for cell survival rate measurement assay. Each cell lines were collected by ordinary method, then suspended in indicated medium containing 10% fetal bovine serum in table 3. The number of cells seeded per well was set to 500 cells/20 μL. After incubation at 37° C. for 24 hours under 5% CO2, Compound 1 and additional compound having an antitumor effect or a vehicle (DMSO) was added to each well by using D300e Digital Dispenser (Tecan). The concentration of Compound 1 was set to 10 concentrations. The concentration of each anti-cancer reagents set to 8 concentrations including 0 nM. After adding the medicine to the cells, the cells were further incubated at 37° C. for 3 days under 5% CO2. Cell survival rates were calculated by adding 20 μL of CellTiter-Glo(registered trademark) 2. 0 (Promega) solution to each well, incubating the cells at room temperature for 10 minutes, and then measuring the chemiluminescence intensity of each well using a plate reader (ARVO).
(§4) A combination index (CI) value at each combined concentration of the medicines was determined.

NCI-H23 = test: Anti-proliferation assay (CellTiter-Glo 2.0), combination index, NCI-H23; format: cell-based; conditions: molar ratio 1:3
Procedure: as §2
Each cell lines were collected by ordinary method, then suspended in indicated medium containing 10% fetal bovine serum in table 3. The number of cells seeded per well was set to 500 cells/20 μL. […] The concentration of each anti-cancer reagents set to 8 concentrations including 0 nM. After adding the medicine to the cells, the cells were further incubated at 37° C. for 3 days under 5% CO2. Cell survival rates were calculated by adding 20 μL of CellTiter-Glo(registered trademark) 2. 0 (Promega) solution to each well, incubating the cells at room temperature for 10 minutes, and then measuring the chemiluminescence intensity of each well using a plate reader (ARVO).
as §4

RMG-I = test: Anti-proliferation assay (CellTiter-Glo 2.0), combination index, RMG-I; format: cell-based; conditions: molar ratio 1:27
Procedure: as §2, §3, §4

SHP2 = molecular target: T1, SHP2 (Homo sapiens, UniProt Q06124); test: SHP2 biochemical assay (DiFMUP conversion); conditions: 10 pM SHP2, 0.25 μM pIRS1 peptide, 50 μM DiFMUP
T1 sequence (Q06124 1-593): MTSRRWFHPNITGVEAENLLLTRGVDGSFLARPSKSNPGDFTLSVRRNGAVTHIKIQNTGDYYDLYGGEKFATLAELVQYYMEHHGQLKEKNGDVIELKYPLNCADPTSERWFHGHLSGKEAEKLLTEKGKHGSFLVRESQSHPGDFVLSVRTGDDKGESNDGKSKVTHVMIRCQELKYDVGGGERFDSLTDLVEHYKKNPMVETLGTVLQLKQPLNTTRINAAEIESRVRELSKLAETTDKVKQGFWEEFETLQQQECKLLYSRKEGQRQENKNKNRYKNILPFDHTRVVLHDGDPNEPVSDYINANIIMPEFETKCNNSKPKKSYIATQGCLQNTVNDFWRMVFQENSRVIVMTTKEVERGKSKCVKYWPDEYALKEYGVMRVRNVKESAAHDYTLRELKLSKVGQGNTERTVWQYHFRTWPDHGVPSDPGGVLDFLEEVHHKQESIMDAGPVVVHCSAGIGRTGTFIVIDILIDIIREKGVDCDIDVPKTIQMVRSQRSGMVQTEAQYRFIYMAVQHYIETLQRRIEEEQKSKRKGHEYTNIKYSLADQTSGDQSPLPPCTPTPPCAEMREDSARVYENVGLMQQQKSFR
Procedure: (1) SHP2 Biochemical Assay SHP2 Activity was Monitored by Measuring the Conversion of the Surrogate Substrate 6,8-Difluoromethylumbelliferyl Phosphate (DiEMUP) to the Fluorescent Product, 6,8-Difluoromethylumbelliferone (DiFMU).
SHP2 was pre-incubated with test compounds and the activating peptide pIRS1 (H2N-LN(pY) IDLDLV-(PEG) 8-LST(pY)ASINFQK-amide) for 30 min, prior to addition of the 6,8-difluoromethylumbelliferyl phosphate (DiEMUP), (Thermo Fisher D6567). Final assay concentrations were 10 pM SHP2, 0.25 μM pIRS1 peptide, 50 μM DiFMUP, 25 mM Bis-Tris propane, pH 7.0, 150 mM NaCl, 0.05% (v/v) Tween-20, 0.5 mM TCEP and 5% (v/v) DMSO. Rates of reaction were then measured over 30 min by monitoring fluorescence on a BMG Pherastar reader at excitation 360 nm/emission 450 nm. IC50 values were calculated in singlicate from the normalized dose-response plots using four parameter logistic curve fit. The Experiment for each compound was carried out in one time or multiple times, and the IC50 values were shown as a single value (for a compound measured in a single experiment) or an average value (for a compound measured in multiple experiments).

[1] = Compound 1 13.7 nmol/L + Abemaciclib 41.2 nmol/L
[2] = Compound 1 41.2 nmol/L + Abemaciclib 123 nmol/L
[3] = Compound 1 123 nmol/L + Abemaciclib 370 nmol/L
[4] = Compound 1 370 nmol/L + Abemaciclib 1110 nmol/L
[5] = Compound 1 1110 nmol/L + Abemaciclib 3330 nmol/L
[6] = Compound 1 3330 nmol/L + Abemaciclib 10000 nmol/L
[7] = Compound 1 4.57 nmol/L + Abemaciclib 123 nmol/L
[8] = Compound 1 41.2 nmol/L + Abemaciclib 1110 nmol/L
[9] = Compound 1 123 nmol/L + Abemaciclib 3330 nmol/L
[10] = combination effect, Compound 1 + Abemaciclib
[11] = Compound 1 13.7 nmol/L + Abemaciclib 370 nmol/L
[12] = Compound 1 1.52 nmol/L + Abemaciclib 41.2 nmol/L

Compound: CCN1CCN(Cc2ccc(Nc3ncc(F)c(-c4cc(F)c5nc(C)n(C(C)C)c5c4)n3)nc2)CC1 [Abemaciclib]
CI (NCI-H358; [1]): 0.638
Fa (NCI-H358; [1]): 0.1857
CI (NCI-H358; [2]): 0.337
Fa (NCI-H358; [2]): 0.3529
CI (NCI-H358; [3]): 0.187
Fa (NCI-H358; [3]): 0.5769
CI (NCI-H358; [4]): 0.189
Fa (NCI-H358; [4]): 0.7183
CI (NCI-H358; [5]): 0.455
Fa (NCI-H358; [5]): 0.7441
CI (NCI-H358; [6]): 0.025
Fa (NCI-H358; [6]): 0.9724
CI (MKN45; [7]): 0.665
Fa (MKN45; [7]): 0.1096
CI (MKN45; [8]): 0.647
Fa (MKN45; [8]): 0.5496
CI (MKN45; [9]): 0.698
Fa (MKN45; [9]): 0.7785
Description (MKN45; [10]): Synergy (0.3-0.7)
CI (MV-4-11; [7]): 0.592
Fa (MV-4-11; [7]): 0.5416
CI (MV-4-11; [11]): 0.494
Fa (MV-4-11; [11]): 0.8419
CI (MV-4-11; [8]): 0.654
Fa (MV-4-11; [8]): 0.9407
CI (MV-4-11; [9]): 0.951
Fa (MV-4-11; [9]): 0.9781
Description (MV-4-11; [10]): Synergy (0.3-0.7)
CI (NCI-H23; [4]): 0.292
Fa (NCI-H23; [4]): 0.3181
CI (NCI-H23; [5]): 0.420
Fa (NCI-H23; [5]): 0.5212
CI (NCI-H23; [6]): 0.031
Fa (NCI-H23; [6]): 0.9964
CI (RMG-I; [12]): 0.724
Fa (RMG-I; [12]): 0.1493
CI (RMG-I; [7]): 0.606
Fa (RMG-I; [7]): 0.2479
CI (RMG-I; [11]): 0.357
Fa (RMG-I; [11]): 0.4570
CI (RMG-I; [8]): 0.455
Fa (RMG-I; [8]): 0.5937
CI (RMG-I; [9]): 0.830
Fa (RMG-I; [9]): 0.6711
Description (RMG-I; [10]): Synergy (0.3-0.7)

IC50 (SHP2): 2.6 nM
Compound: Cn1nc2ccc(-c3n[nH]c4nc(N5C[C@H]6CC[C@@H]5[C@@H]6N)n(C)c(=O)c34)c(Cl)c2c1Cl [Compound 2, 6-((1R,4R,7R)-7-amino-2-azabicyclo[2.2.1]heptan-2-yl)-3-(3,4-dichloro-2-methyl-2H-indazol-5-yl)-5-methyl-1,5-dihydro-4H-pyrazolo[3,4-d]pyrimidin-4-one]

IC50 (SHP2): 3.7 nM
Compound: Cn1cc2c(Cl)c(-c3c[nH]c4nc(N5C[C@H]6CC[C@@H]5[C@@H]6N)n(C)c(=O)c34)ccc2n1 [Compound 4, 2-((1R,4R,7R)-7-amino-2-azabicyclo[2.2.1]heptan-2-yl)-5-(4-chloro-2-methyl-2H-indazol-5-yl)-3-methyl-3,7-dihydro-4H-pyrrolo[2,3-d]pyrimidin-4-one]
